# Experimental data reported in paper PMC3070735, “Uremic Toxins Inhibit Transport by Breast Cancer Resistance Protein and Multidrug Resistance Protein 4 at Clinically Relevant Concentrations” (PLoS ONE, 2011).
# Counter-ions that a name gives are not always drawn. Like-named read-outs stand apart in the source and are kept apart here. Marks after values point to notes of the source that are not given here.
# Key:
# [1] = plasma of CKD patients, cited from earlier work
# [2] = Plasma concentrations of uremic toxins in CRF and ESRD patients and healthy controls (HPLC, LC/MS-MS); type: in vivo, human
# Description: Blood samples were obtained from 4 patients with chronic renal failure (CRF) during regular check-up, 6 patients with end-stage renal disease (ESRD) before hemodialysis and 4 healthy controls. None of the subjects had been fasting at the time of blood sampling. Blood was collected in an EDTA Vacutainer and was immediately centrifuged at 3,000 x g for 10 min. Subsequently, plasma was collected and stored at −20°C. Before chromatography an aliquot of plasma was diluted in H2O (1∶1) and deproteinized with perchloric acid (final concentration 3.3% (v/v)). Next, samples were centrifuged at 12,000 x g for 3 min and 50 µl of the supernatant was injected into the HPLC-system (Spectra-Physics Analytical, Spectrasystem SCM400). […] Separation was performed at a flow rate of 1 ml/min with eluent A (95% (v/v) H2O, 5% (v/v) acetonitril and 0.1% (v/v) heptafluorobutyric acid) and eluent B (50% (v/v) H2O, 50% (v/v) acetonitrile and 0.1% (v/v) heptafluorobutyric acid) under the following gradient conditions: 0–1 min, 100% eluent A; 1–15 min, 100–25% eluent A; 15–17 min, 25% eluent A; 17–18 min, […]; 18–23 min, 100% eluent A. The compounds were detected at a wavelength of 230 nm. For the detection of phenylacetic acid, chromatography was performed on a C18 HPLC column (Polaris 3 C18-A 150×4.6 mm; Varian, Middelburg, the Netherlands) with eluent A (97% (v/v) 50 mM sodium phosphate buffer [pH 6.5] and 3% (v/v) methanol) and eluent B (50% (v/v) H2O, 49% (v/v) acetonitrile and 1% (v/v) tetrahydrofuran) using the following gradient: 0–1 min, 100% eluent A; 1–15 min, 100–90% eluent A; 15–18 min, 10–100% eluent B; 18–22 min, 100% eluent B; 22–25 min, 0–100% eluent A; 25–30 min, 100% eluent A. The flow rate was 1 ml/min and phenylacetic acid was measured at a wavelength of 215 nm. Standards of the compounds were also run in order to quantify the amount of toxins found in the samples. Acquired data were processed with PC1000 software (Spectrasystem).
# To determine the levels of kynurenic acid, blood was collected from CRF patients and processed as described above. Subsequently, 10 µl of the clear supernatant was injected into the LC/MS-MS system that consisted of an Accela HPLC system (Thermo scientific, Breda, the Netherlands) equipped with a C18 HPLC column (VisionHT C18 B 100×2 mm, 1.5 µm; Grace). Separation was performed at a flow rate of 150 µl/min with eluent A (5 mM ammonium formate+0.01% (v/v) trifluoroacetic acid) and eluent B (50% acetonitrile) under the following gradient conditions: 0–10 min, 98–50% eluent A; 10–15 min, 50% eluent A; 15–16 min, 50–98% eluent A; 16–21 min, 98% eluent A. The fractions eluted were directly passed through a TSQ Vantage tandem mass spectrometer (Thermo scientific) equipped with an electro-spray ionization source operating in the positive ion mode. The ion spray voltage was 4 kV, source temperature was 350°C and collision gas pressure was 1.5 bar. Kynurinic acid and the internal standard 1-methyl-tryptophan were quantified by selected reaction monitoring (SRM). […] Acquired data were processed with Thermo Xcaliber software (Thermo scientific).
# [3] = Uremic plasma concentrations (Cu, Cmax) in CKD patients from the EUTox database and literature; type: in vivo, human; settings: calculated as Cmax = Cu + 2 SD; read-out: Hypothetical Cmax
# Description: The calculated Ki and IC20 values were compared with the mean plasma concentrations measured in ESRD patients during this study (Cm), the highest mean/median (Cu) and the highest maximal plasma concentrations (Cmax) measured in the literature in patients with CKD are also shown. The IC20 value was used since we believe that a 20% decrease in transport can already have a clinical impact. The Cu and Cmax values were obtained from the online database of the European Uremic Toxin (EUTox) Work Group (www.uremic-toxins.org; [19]), unless stated otherwise.
# [4] = CRF patients (n = 4), total plasma
# [5] = ESRD patients (n = 6), total plasma
# [6] = healthy controls (n = 4), total plasma
Structure (SMILES),"Cu, highest mean/median uremic concentration ([1]; ref www.uremic-toxins.org [19]) [µM]","Mean plasma concentration [2, 4] [µM]","Cm, mean plasma concentration determined in this study [2, 5] [µM]","Mean plasma concentration [2, 6] [µM]","Cm, mean plasma concentration determined in this study ([2]; human, in vivo) [µM]",also measured
O=S(=O)(O)Oc1c[nH]c2ccccc12 [indoxyl sulfate],211,65,129,13,–,–
O=C(O)CNC(=O)c1ccccc1 [hippuric acid],1380,–,–,–,160,"Cu, highest median uremic concentration ([1]; ref www.uremic-toxins.org [19]): 1.4 mM; Cmax ([1]; ref www.uremic-toxins.org [19], read-out: Cmax, maximal uremic concentration): 2600 µM"
O=C(O)c1cc(=O)c2ccccc2[nH]1 [kynurenic acid],–,–,–,–,1,–
O=C(O)Cc1ccccc1 [phenylacetic acid],–,4,18,5,–,"Cmax [3]: 7700 µM; Cu, highest median plasma concentration [1]: 3.5 mM; Cu, highest mean/median uremic concentration ([1]; obtained from literature): 3490 ^a µM; Maximum plasma concentration ([2]; CRF patients): 9 µM; Maximum plasma concentration ([2]; ESRD patients): 83 µM"
O=C(O)Cc1c[nH]c2ccccc12 [indole-3-acetic acid],–,–,–,–,4,–
